Test results from PMC10287695, “Non-covalent inhibitors of thioredoxin glutathione reductase with schistosomicidal activity in vivo” (Nature Communications, 2023).
“And” between values parts separate entries of the source, which are not always exact repeats. Identical values can stand only once. Like-named read-outs stand apart in the source and are kept apart here. Marks after values point to notes of the source that are not given here.

Legend:
Human GR = target: T1, Human GR (Homo sapiens, UniProt P00390); experiment: Human GR enzyme inhibition (GSSG reduction, NADPH oxidation); format: biochemical; conditions: for inhibition at 5 µM: compound 5 µM
T1 construct: made in house
T1 sequence (P00390 44-522): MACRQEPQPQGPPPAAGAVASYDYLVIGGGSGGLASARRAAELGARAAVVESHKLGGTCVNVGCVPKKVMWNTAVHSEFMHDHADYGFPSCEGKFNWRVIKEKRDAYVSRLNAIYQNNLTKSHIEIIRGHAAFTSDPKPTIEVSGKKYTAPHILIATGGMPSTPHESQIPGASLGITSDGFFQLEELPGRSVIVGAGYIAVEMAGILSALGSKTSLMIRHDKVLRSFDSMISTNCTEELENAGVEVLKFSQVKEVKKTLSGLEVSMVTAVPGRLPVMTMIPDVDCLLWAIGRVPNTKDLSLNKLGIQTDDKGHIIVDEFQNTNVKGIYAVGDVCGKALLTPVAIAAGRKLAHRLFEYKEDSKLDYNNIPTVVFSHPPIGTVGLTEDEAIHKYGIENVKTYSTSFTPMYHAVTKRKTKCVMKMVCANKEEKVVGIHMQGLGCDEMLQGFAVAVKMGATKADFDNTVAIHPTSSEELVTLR

S. mansoni adult worms = experiment: GSH/GSSG ratio in ex vivo adult worms; format: cell-based; conditions: for Decrease (%) in GSH/GSSG ratio: adult worms, 3 h exposure to compounds at 50 μM
[1] = system: S. mansoni newly transformed schistosomula (NTS); experiment: Schistosomicidal activity ex vivo, NTS (Cell Titer Glo); format: cell-based; conditions: for LD50 ex vivo S. mansoni NTS: 24 h exposure, Cell TiterGlo
In short: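 NTS (240/well) in M199 with 5.5 mM D-glucose and 5% heat-inactivated FBS exposed to compounds in triplicate at <1% DMSO, 37 °C, 5% CO2. Viability from worm ATP by Cell Titer Glo at 24 or 72 h, as % of DMSO control; 5 µM AF positive control.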

[2] = hGR, 15 minutes pre-incubation, compound 15 µM, read-out: % inhibition
[3] = hGR, 15 minutes pre-incubation, compound 30 µM, read-out: % inhibition
[4] = hGR, 15 minutes pre-incubation, compound 66.7 µM, read-out: % inhibition
[5] = hGR, 6 hours pre-incubation, compound 15 µM, read-out: % inhibition
[6] = hGR, 6 hours pre-incubation, compound 30 µM, read-out: % inhibition
[7] = hGR, 6 hours pre-incubation, compound 66.7 µM, read-out: % inhibition
[8] = adult worms ex vivo, 1 hr, relative to 0hr
[9] = adult worms ex vivo, 1 hr, relative to 0hr, values given as fraction
[10] = adult worms ex vivo, 3 hr, relative to 0hr
[11] = adult worms ex vivo, 3 hr, relative to 0hr, values given as fraction
[12] = 1 hr, third data set (r147-159), 0hr 72.45
[13] = 1 hr, third data set (r147-159), 0hr = 100
[14] = 1 hr, third data set, (values given as fraction)
[15] = 3 hr, third data set (r147-159), 0hr 72.45
[16] = 3 hr, third data set (r147-159), 0hr = 100
[17] = 3 hr, third data set, (values given as fraction)

Row | SMILES | Human GR (inhibition at 66.7 µM) (Human GR; 66.7 µM) | inhibition at 15 µM (Human GR; [2]) | inhibition at 30 µM (Human GR; [3]) | inhibition at 66.7 µM (Human GR; [4]) | inhibition at 15 µM (Human GR; [5]) | inhibition at 30 µM (Human GR; [6]) | inhibition at 66.7 µM (Human GR; [7]) | % Ratio GSH/GSSG (S. mansoni adult worms; adult worms ex vivo, 1 hr) | Reduction (%) in GSH/GSSG ratio (S. mansoni adult worms; [8]) | Reduction (%) in GSH/GSSG ratio (S. mansoni adult worms; [9]) | % Ratio GSH/GSSG (S. mansoni adult worms; adult worms ex vivo, 3 hr) | Reduction (%) in GSH/GSSG ratio (S. mansoni adult worms; [10]) | Reduction (%) in GSH/GSSG ratio (S. mansoni adult worms; [11]) | Decrease (%) in GSH/GSSG ratio (S. mansoni adult worms) | LD50 ex vivo S. mansoni NTS [1] | viability at 1 µM ([1]; Schistosoma mansoni) | viability at 5 µM ([1]; Schistosoma mansoni) | Reduction (%) in GSH/GSSG ratio (S. mansoni adult worms; 1 hr, third data set) | Ratio GSH/GSSG (S. mansoni adult worms; [12]) | % Ratio GSH/GSSG (S. mansoni adult worms; [13]) | also measured
1 | Cc1oc(C2CCCCC2)nc1C(=O)N[C@@H]1C[C@@H]2C[C@H]([C@H]1C)C2(C)C [Compound 7] | n.i. | -0.669% | -0.696% | -1.12% | -0.918% | -2.19% | -0.656% | 52.5902% | 13.6142% | 0.1361% | 37.7921% | 37.9219% | 0.3792% | 38% and 36.9% | 4.7 ± 0.31 µM | 85.7% | 40.2% | – | – | – | viability at 1.5 µM ([1]; Schistosoma mansoni): 72.1%; viability at 2.5 µM ([1]; Schistosoma mansoni): 47.6%
2 | C[C@@H]1[C@H]2C[C@@H](C[C@H]1NCc1nc3ccccc3n1C1CCCCCC1)C2(C)C [Compound 8] | n.i. | -0.934% | -0.111% | -0.91% | -4.52% | -1.03% | 9.42% | 52.2584% | 14.1592% | 0.1416% | 52.8952% | – | 0.2338% | 20% | 9.4 ± 0.74 µM | 91.9% | 84.8% | 13.1896% | 62.89 | 86.8104% | inhibition at 5 µM (Human GR; hGR, 15 minutes pre-incubation): -0.362%; inhibition at 5 µM (Human GR; hGR, 6 hours pre-incubation): -1.4%; Reduction (%) in GSH/GSSG ratio (S. mansoni adult worms; [14]): 0.13%; Reduction (%) in GSH/GSSG ratio (S. mansoni adult worms; 3 hr, third data set): 20.8885%; Ratio GSH/GSSG (S. mansoni adult worms; [15]): 57.32; % Ratio GSH/GSSG (S. mansoni adult worms; [16]): 79.1115%; Reduction (%) in GSH/GSSG ratio (S. mansoni adult worms; [17]): 0.21%; viability at 0.1 µM ([1]; Schistosoma mansoni): 99.8%; viability at 10 µM ([1]; Schistosoma mansoni): 33.1%; viability at 15 µM ([1]; Schistosoma mansoni): 28.2%; viability at 30 µM ([1]; Schistosoma mansoni): 11.9%; viability at 50 µM ([1]; Schistosoma mansoni): 1.87%; viability at 100 µM ([1]; Schistosoma mansoni): 0.303%
3 | CC1C(NCc2cn(C3OCC(O)C(O)C3O)c3ccccc23)CC2CC1C2(C)C (centres unmarked) [Compound 9] | n.i. | -0.142% | -2.5% | -1.69% | -0.844% | -1.45% | -3.11% | – | – | – | – | – | – | 9% | 11.14 ± 1.04 µM | – | – | 1.8641% | 71.10 | 98.1359% | Ratio GSH/GSSG (S. mansoni adult worms; 1 hr, second data set (r136-144), baseline 63.5617, DMSO 63.4928): 62.1962; Reduction (%) in GSH/GSSG ratio (S. mansoni adult worms; [14]): 0.0186%; Ratio GSH/GSSG (S. mansoni adult worms; 3 hr, second data set (r136-144), baseline 63.5617, DMSO 203.124): 55.0997; Reduction (%) in GSH/GSSG ratio (S. mansoni adult worms; 3 hr, third data set): 10.4658%; Ratio GSH/GSSG (S. mansoni adult worms; [15]): 64.87; % Ratio GSH/GSSG (S. mansoni adult worms; [16]): 89.5342%; Reduction (%) in GSH/GSSG ratio (S. mansoni adult worms; [17]): 0.10%
4 | C[C@@H]1[C@H]2C[C@@H](C[C@H]1NCc1cc(-c3ccccc3)[nH]n1)C2(C)C [Compound 11] | n.i. | – | – | – | – | – | – | 59.9789% | 1.477% | 0.01477% | 59.8685% | 1.659% | 0.01659% | – | >50^a µM | – | – | – | – | – | inhibition at 15 µM (Human GR; 15 minutes pre-incubation, 15 µM, read-out: hGR % inhibition): -0.832%; inhibition at 30 µM (Human GR; 15 minutes pre-incubation, 30 µM, read-out: hGR % inhibition): -1.45%; inhibition at 66.7 µM (Human GR; 15 minutes pre-incubation, 66.7 µM, read-out: hGR % inhibition): -1.01%; inhibition at 15 µM (Human GR; 6 hours pre-incubation, 15 µM, read-out: hGR % inhibition): -0.778%; inhibition at 30 µM (Human GR; 6 hours pre-incubation, 30 µM, read-out: hGR % inhibition): -1.99%; inhibition at 66.7 µM (Human GR; 6 hours pre-incubation, 66.7 µM, read-out: hGR % inhibition): -2.81%
5 | C[C@@H]1[C@H]2C[C@@H](C[C@H]1NCc1nc3ccccc3n1C)C2(C)C [Compound 12] | n.i. | – | – | – | – | – | – | 59.2209% | 1.36% | – | 58.1972% | – | – | – | >50^a µM | – | – | – | – | – | –
